{"source": "patent US9216968B2", "about": "“Heterocyclic derivative and pharmaceutical drug” (NIPPON SHINYAKU CO., LTD., priority 2011, dated 2015)", "key": {"A549 cells": {"test_system": "A549 cells", "experiment": "Inhibition of PGE2 production in A549 cell (IL-1β stimulated)", "assay_type": "cell-based, human", "settings": "Homo sapiens, A549, 24 h, IL-1β 5 ng/well, PGE2 in culture medium", "outline": "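A549 cells preincubated 60 min with compound in RPMI/3% FBS (final DMSO 0.10), then stimulated with IL-1β (5 ng/well) for 24 h at 37 °C. PGE2 measured by HTRF and PGF2α by EIA in medium; IC50 from inhibition relative to stimulated minus unstimulated production.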"}, "human mPGES-1": {"biological_target": "human mPGES-1 (Homo sapiens (Human), UniProt O14684)", "sequence (O14684 whole entry)": "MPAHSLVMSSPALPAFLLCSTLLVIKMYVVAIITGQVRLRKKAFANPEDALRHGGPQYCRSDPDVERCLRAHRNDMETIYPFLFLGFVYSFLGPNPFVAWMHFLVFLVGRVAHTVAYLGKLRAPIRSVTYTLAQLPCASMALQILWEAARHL", "experiment": "mPGES-1 inhibiting activity (microsome fractions, PGE2 by HTRF)", "assay_type": "biochemical", "settings": "microsomes from CHO-K1 cells transfected with human mPGES-1; PGH2 1 μM, 4° C., 60 seconds; read-out: mPGES-1 Inhibition IC50", "outline": "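PGE2 formation read by HTRF after 60 s at 4 °C with 1 μM PGH2 substrate, following 20 min compound preincubation (1% DMSO) with human mPGES-1 microsomes from transfected CHO-K1 cells. Buffer: potassium phosphate, reduced glutathione, pH 7.4; IC50 from activity relative to enzyme-free blank.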"}}, "note": "Where a name gives a salt, the structure may show the parent alone."}
{"molecule": "COCc1nc2c(C(=O)Nc3cccc(Cl)c3C)cc(NC(=O)c3c(Cl)cccc3C(F)(F)F)cc2[nH]1", "note": "[Example 113, N-(3-Chloro-2-methylphenyl)-6-({[2-chloro-6-(trifluoromethyl)phenyl]carbonyl}amino)-2-(methoxymethyl)-1H-benzimidazole-4-carboxamide hydrochloride]", "values": [{"measurement": "IC50", "setting": "A549 cells", "value": 1.2, "unit": "nM"}, {"measurement": "IC50", "setting": "human mPGES-1", "value": "≤ 0.1", "unit": "nM"}]}
{"molecule": "Cc1c(Cl)cccc1NC(=O)c1cc(NC(=O)c2ccccc2C(F)(F)F)cc2[nH]c(NCC(=O)OC(C)(C)C)nc12", "note": "[Example 160, tert-Butyl N-{4-[(3-chloro-2-methylphenyl)carbamoyl]-6-({[2-(trifluoromethyl)phenyl]carbonyl}amino)-1H-benzimidazol-2-yl}glycinate hydrochloride]", "values": [{"measurement": "IC50", "setting": "A549 cells", "value": 71.6, "unit": "nM"}, {"measurement": "IC50", "setting": "human mPGES-1", "value": 7.6, "unit": "nM"}]}
{"molecule": "Cc1c(Cl)cccc1NC(=O)c1cc(NC(=O)c2cc(Cl)ccc2Cl)cc2[nH]c(NCC(C)(C)CO)nc12", "note": "[Example 189, N-(3-Chloro-2-methylphenyl)-6-{[(2,5-dichlorophenyl)carbonyl]amino}-2-[(3-hydroxy-2,2-dimethylpropyl)amino]-1H-benzimidazole-4-carboxamide hydrochloride]", "values": [{"measurement": "IC50", "setting": "A549 cells", "value": 24.5, "unit": "nM"}, {"measurement": "IC50", "setting": "human mPGES-1", "value": 1.4, "unit": "nM"}]}
{"molecule": "CCOCc1ccc(Cl)c(C(=O)Nc2cc(C(=O)Nc3cccc(Cl)c3C)c3nc(COC)[nH]c3c2)c1", "note": "[Example 120, 6-({[2-Chloro-5-(ethoxymethyl)phenyl]carbonyl}amino)-N-(3-chloro-2-methylphenyl)-2-(methoxymethyl)-1H-benzimidazole-4-carboxamide]", "values": [{"measurement": "IC50", "setting": "A549 cells", "value": 513, "unit": "nM"}, {"measurement": "IC50", "setting": "human mPGES-1", "value": 57.5, "unit": "nM"}]}
{"molecule": "COC(C)(C)CNc1nc2c(C(=O)Nc3cccc(Cl)c3C)cc(NC(=O)c3ccccc3C(F)(F)F)cc2[nH]1", "note": "[Example 177, N-(3-Chloro-2-methylphenyl)-2-[(2-methoxy-2-methylpropyl)amino]-6-({[2-(trifluoromethyl)phenyl]carbonyl}amino)-1H-benz imidazole-4-carboxamide hydrochloride]", "values": [{"measurement": "IC50", "setting": "A549 cells", "value": 45.2, "unit": "nM"}, {"measurement": "IC50", "setting": "human mPGES-1", "value": 8.3, "unit": "nM"}]}
{"molecule": "COCc1nc2c(C(=O)Nc3cccc(Cl)c3C)cc(NC(=O)c3cc(C(F)(F)F)ccc3C(F)(F)F)cc2[nH]1", "note": "[Example 110, 6-({[2,5-Bis(trifluoromethyl)phenyl]carbonyl}amino)-N-(3-chloro-2-methylphenyl)-2-(methoxymethyl)-1H-benzimidazole-4-carboxamide hydrochloride]", "values": [{"measurement": "IC50", "setting": "A549 cells", "value": 35.5, "unit": "nM"}, {"measurement": "IC50", "setting": "human mPGES-1", "value": 2.6, "unit": "nM"}]}
{"molecule": "Cc1c(Cl)cccc1NC(=O)c1cc(NC(=O)c2ccccc2C(F)(F)F)cc2[nH]c(C3(C(F)(F)F)CC3)nc12", "note": "[Example 89, N-(3-Chloro-2-methylphenyl)-2-[1-(trifluoromethyl)cyclopropyl]-6-({[2-(trifluoromethyl)phenyl]carbonyl}amino)-1H-benzimidazole-4-carboxamide]", "values": [{"measurement": "IC50", "setting": "A549 cells", "value": 2.1, "unit": "nM"}, {"measurement": "IC50", "setting": "human mPGES-1", "value": 1.2, "unit": "nM"}]}
{"molecule": "COCc1nc2c(C(=O)Nc3cccc(Cl)c3C)cc(NC(=O)c3c(Cl)cccc3Br)cc2[nH]1", "note": "[Example 102, 6-{[(2-Bromo-6-chlorophenyl)carbonyl]amino}-N-(3-chloro-2-methylphenyl)-2-(methoxymethyl)-1H-benzimidazole-4-carboxamide hydrochloride]", "values": [{"measurement": "IC50", "setting": "A549 cells", "value": 49.1, "unit": "nM"}, {"measurement": "IC50", "setting": "human mPGES-1", "value": 1.6, "unit": "nM"}]}
{"molecule": "Cc1c(Cl)cccc1NC(=O)c1cc(NC(=O)c2c(F)cccc2Cl)cc2[nH]c(N[C@H](CO)C(C)C)nc12", "note": "[Example 201, 6-{[(2-Chloro-6-fluorophenyl)-carbonyl]amino}-N-(3-chloro-2-methylphenyl)-2-{[(25)-1-hydroxy-3-methylbutan-2-yl]amino}-1H-benzimidazole-4-carboxamide hydrochloride]", "values": [{"measurement": "IC50", "setting": "A549 cells", "value": 253, "unit": "nM"}, {"measurement": "IC50", "setting": "human mPGES-1", "value": 0.5, "unit": "nM"}]}
{"molecule": "Cc1nc2c(C(=O)NC3CCC3)cc(NC(=O)c3ccccc3C(F)(F)F)cc2[nH]1", "note": "[Example 16, N-Cyclobutyl-2-methyl-6-({[2-(trifluoromethyl)phenyl]carbonyl}amino)-1H-benzimidazole-4-carboxamide]", "values": [{"measurement": "IC50", "setting": "A549 cells", "value": 1300, "unit": "nM"}, {"measurement": "IC50", "setting": "human mPGES-1", "value": 63.9, "unit": "nM"}]}
{"molecule": "COCc1nc2c(C(=O)Nc3ccc4c(c3)CCC4)cc(NC(=O)c3ccccc3C(F)(F)F)cc2[nH]1", "note": "[Example 33, N-(2,3-Dihydro-1H-inden-5-yl)-2-(methoxymethyl)-6-({[2-(trifluoromethyl)phenyl]carbonyl}amino)-1H-benzimidazole-4-carboxamide hydrochloride]", "values": [{"measurement": "IC50", "setting": "A549 cells", "value": 33.6, "unit": "nM"}, {"measurement": "IC50", "setting": "human mPGES-1", "value": 3, "unit": "nM"}]}
{"molecule": "Cc1c(Cl)cccc1NC(=O)c1cc(NC(=O)c2cc(Cl)ccc2Cl)cc2[nH]c(NCC(C)(C)O)nc12", "note": "[Example 191, N-(3-Chloro-2-methylphenyl)-6-{[(2,5-dichlorophenyl)carbonyl]amino}-2-[(2-hydroxy-2-methylpropyl)amino]-1H-benzimidazole-4-carboxamide hydrochloride]", "values": [{"measurement": "IC50", "setting": "A549 cells", "value": 49.5, "unit": "nM"}, {"measurement": "IC50", "setting": "human mPGES-1", "value": 3.9, "unit": "nM"}]}
{"molecule": "Cc1c(Cl)cccc1NC(=O)c1cc(NC(=O)c2c(Cl)cccc2Br)cc2[nH]c(N(C)C)nc12", "note": "[Example 187, 6-{[(2-Bromo-6-chlorophenyl)carbonyl]amino}-N-(3-chloro-2-methylphenyl)-2-(dimethylamino)-1H-benzimidazole-4-carboxamide hydrochloride]", "values": [{"measurement": "IC50", "setting": "A549 cells", "value": 12.7, "unit": "nM"}, {"measurement": "IC50", "setting": "human mPGES-1", "value": 3.6, "unit": "nM"}]}
{"molecule": "COCc1nc2c(C(=O)Nc3cccc4ccccc34)cc(NC(=O)c3ccccc3C(F)(F)F)cc2[nH]1", "note": "[Example 219, 2-(Methoxymethyl)-N-(naphthalen-1-yl)-6-({[2-(trifluoromethyl)phenyl]carbonyl}amino)-1H-benzimidazole-4-carboxamide hydrochloride]", "values": [{"measurement": "IC50", "setting": "A549 cells", "value": 26, "unit": "nM"}, {"measurement": "IC50", "setting": "human mPGES-1", "value": 2, "unit": "nM"}]}
{"molecule": "Cc1c(Cl)cccc1NC(=O)c1cc(NC(=O)c2cc(Cl)ccc2Cl)cc2[nH]c(C3CCCC3)nc12", "note": "[Example 125, N-(3-Chloro-2-methylphenyl)-2-cyclopentyl-6-{[(2,5-dichlorophenyl)carbonyl]amino}-1H-benzimidazole-4-carboxamide hydrochloride]", "values": [{"measurement": "IC50", "setting": "A549 cells", "value": 56.9, "unit": "nM"}, {"measurement": "IC50", "setting": "human mPGES-1", "value": 25.6, "unit": "nM"}]}
{"molecule": "Cc1c(Cl)cccc1NC(=O)c1cc(NC(=O)c2ccccc2C(F)(F)F)cc2[nH]c(NCC(C)(C)CO)nc12", "note": "[Example 158, N-(3-Chloro-2-methylphenyl)-2-[(3-hydroxy-2,2-dimethylpropyl)amino]-6-({[2-(trifluoromethyl)phenyl]carbonyl}amino)-1H-benzimidazole-4-carboxamide hydrochloride]", "values": [{"measurement": "IC50", "setting": "A549 cells", "value": 82.2, "unit": "nM"}, {"measurement": "IC50", "setting": "human mPGES-1", "value": 8.5, "unit": "nM"}]}
{"molecule": "Cc1ccc(NC(=O)c2cc(NC(=O)c3cc(Cl)ccc3Cl)cc3[nH]c(C(C)(C)C)nc23)cc1Cl", "note": "[Example 88, 2-tert-Butyl-N-(3-chloro-4-methylphenyl)-6-{[(2,5-dichlorophenyl)carbonyl]amino}-1H-benzimidazole-4-carboxamide hydrochloride]", "values": [{"measurement": "IC50", "setting": "A549 cells", "value": 9.2, "unit": "nM"}, {"measurement": "IC50", "setting": "human mPGES-1", "value": 15.1, "unit": "nM"}]}
{"molecule": "Cc1c(Cl)cccc1NC(=O)c1cc(NC(=O)c2ccccc2C(F)(F)F)cc2[nH]c(NCCO)nc12", "note": "[Example 137, N-(3-Chloro-2-methylphenyl)-2-[(2-hydroxyethyl)amino]-6-({[2-(trifluoromethyl)phenyl]carbonyl}amino)-1H-benzimidazole-4-carboxamide hydrochloride]", "values": [{"measurement": "IC50", "setting": "A549 cells", "value": 1110, "unit": "nM"}, {"measurement": "IC50", "setting": "human mPGES-1", "value": 3.3, "unit": "nM"}]}
{"molecule": "Cc1nc2c(C(=O)NC3CCCCC3)cc(NC(=O)c3ccccc3C(F)(F)F)cc2[nH]1", "note": "[Example 13, N-Cyclohexyl-2-methyl-6-({[2-(trifluoromethyl)phenyl]carbonyl}amino)-1H-benzimidazole-4-carboxamide hydrochloride]", "values": [{"measurement": "IC50", "setting": "A549 cells", "value": 75.6, "unit": "nM"}, {"measurement": "IC50", "setting": "human mPGES-1", "value": 35.1, "unit": "nM"}]}
{"molecule": "Cc1c(Cl)cccc1NC(=O)c1cc(NC(=O)c2ccccc2C(F)(F)F)cc2[nH]c(N3CCN(C)CC3)nc12", "note": "[Example 143, N-(3-Chloro-2-methylphenyl)-2-(4-methylpiperazin-1-yl)-6-({[2-(trifluoromethyl)phenyl]carbonyl}amino)-1H-benzimidazole-4-carboxamide dihydrochloride]", "values": [{"measurement": "IC50", "setting": "A549 cells", "value": 87.5, "unit": "nM"}, {"measurement": "IC50", "setting": "human mPGES-1", "value": 5.3, "unit": "nM"}]}
{"molecule": "COCc1nc2c(C(=O)Nc3ccc(C)cc3Cl)cc(NC(=O)c3ccccc3C(F)(F)F)cc2[nH]1", "note": "[Example 30, N-(2-Chloro-4-methylphenyl)-2-(methoxymethyl)-6-({[2-(trifluoromethyl)phenyl]carbonyl}amino)-1H-benzimidazole-4-carboxamide hydrochloride]", "values": [{"measurement": "IC50", "setting": "A549 cells", "value": 210, "unit": "nM"}, {"measurement": "IC50", "setting": "human mPGES-1", "value": 1.8, "unit": "nM"}]}
